Assay [1] deals with human RORγt ligand binding domain (RORγt LBD) (Homo sapiens (Human), UniProt P51449). The assay is described as follows: RORγt ThermoFluor® assay (thermal shift binding). As to conditions: read-out: ThermoFluor® Assay, Kd. An excerpt:
ThermoFluor® is a fluorescence based assay that estimates ligand binding affinities by measuring the effect of a ligand on protein thermal stability (Pantoliano, M. W., Petrella, E. C., Kwasnoski, J. D., Lobanov, V. S., Myslik, J., Graf, E., Carver, T., Asel, E., Springer, B. A., Lane, P., and Salemme, F. R. (2001) High-density miniaturized thermal shift assays as a general strategy for drug discovery. J Biomol Screen 6, 429-40, and Matulis, D., Kranz, J. K., Salemme, F. R., and Todd, M. J. (2005) Thermodynamic stability of carbonic anhydrase: measurements of binding affinity and stoichiometry using ThermoFluor. Biochemistry 44, 5258-66). This approach is applicable to a wide variety of systems, and rigorous in theoretical interpretation through quantitation of equilibrium binding constants (KD).
The shift in the melting point described as a ΔTm is proportional to the concentration and affinity of the ligand. The compound potency may be compared as a rank order of either ΔTm values at a single compound concentration or in terms of KD values, estimated from concentration response curves.
RORγt ThermoFluor® Assay Construct
For the RORγt construct used in the ThermoFluor® assay, numbering for the nucleotide sequences was based on the reference sequence for human RORγt, transcript variant 2, NCBI Accession: NM_001001523.1 (SEQ ID NO:1). Nucleotides 850-1635 (SEQ ID NO:2) coding for the wild type human RORγt ligand binding domain (RORγt LBD) were cloned into the pHIS1 vector, a modified pET E. coli expression vector (Accelagen, San Diego), containing an in-frame N-terminal His-tag and a TurboTEV protease cleavage site (ENLYFQG, SEQ ID NO:3) upstream of the cloned insert sequence. The amino acid sequence for the RORγt construct used in the Thermofluor® assay is shown as SEQ ID NO:4.
ThermoFluor® experiments were carried out using instruments owned by Janssen Research and Discovery, L.L.C. through its acquisition of 3-Dimensional Pharmaceuticals, Inc. 1,8-ANS (Invitrogen) was used as a fluorescent dye. Protein and compound solutions are dispensed into black 384-well polypropylene PCR microplates (Abgene) and overlayed with silicone oil (1 μL, Fluka, type DC 200) to prevent evaporation.
Bar-coded assay plates are robotically loaded onto a thermostatically controlled PCR-type thermal block and then heated at a typical ramp-rate of 1° C./min for all experiments. Fluorescence was measured by continuous illumination with UV light (Hamamatsu LC6) supplied via fiber optic and filtered through a band-pass filter (380-400 nm; >6 OD cutoff). Fluorescence emission of the entire 384-well plate was detected by measuring light intensity using a CCD camera (Sensys, Roper Scientific) filtered to detect 500±25 nm, resulting in simultaneous and independent readings of all 384 wells. Images were collected at each temperature, and the sum of the pixel intensity in a given area of the assay plate was recorded versus temperature. Reference wells contained RORγt without compounds, and the assay conditions were as follows: • 0.065 mg/mL RORγt • 60 μM 1,8-ANS • 100 mM Hepes, pH 7.0 • 10 mM NaCl • 2.5 mM GSH • 0.002% Tween-20
Project compounds were arranged in a pre-dosed mother plate (Greiner Bio-one) wherein compounds are serially diluted in 100% DMSO by 1:2 from a high concentration of 10 mM over 12 columns within a series (column 12 is a reference well containing DMSO, no compound). The compounds were robotically dispensed directly into assay plates (×=46 nL) using a Hummingbird capillary liquid handling instrument (Digilab). Following compound dispense, protein and dye in buffer was added to achieve the final assay volume of 3 μL, followed by 1 μL of silicone oil.

The next assay has as its target full-length human RORγt (Homo sapiens (Human), UniProt P51449). Kind of assay: RORγt (full-length human) reporter assay, Conditions B or C. The class given is cell-based. As to conditions: for inhibition at 3 µM: read-out: RORγt (FL) Reporter Assay B or C, % inhibition; for IC50: read-out: RORγt (FL) Reporter Assay B or C, IC50; for RORγt (FL) Reporter Assay B or C, % inhibition (value marked *): marked *: footnote not given. From the text:
RORγt (Full-Length Human) Reporter Assay:
Cells used in this assay were transiently co-transfected with three different plasmids, one expressing the GAL4-DNA binding domain (DBD)-RORγt fusion protein under control of a CMV promoter (NH2-Gal4-DBD:RORC-COOH in pCMV-BD, Stratagene #211342), and two reporter plasmids—the firefly luciferase reporter under control of a GAL4 promoter (pFR-Luc 2×GAL4) and Renilla luciferase reporter under control of CMV promoter (pRL-CMV, Promega # E2261). The full-length coding sequence was used for human RORγt, i.e., nucleotides 142-1635 of human RORγt, transcript variant 2, NCBI Accession: NM_001001523.1 (SEQ ID NO:1). HEK293T cells were plated at 35,000 per well in 96-well plate in medium of DMEM with 10% FBS. After 18-22 hours incubation, the transfection was carried out by using a PEI solution with 170.5 ng total DNA/well (50 ng pCMV-BD-ROR plus 20 ng of pFR-Luc reporter and 0.5 ng of pRL-CMV reporter plus 100 ng Carrier DNA (Clontech #630440) for each well). 4-6 hours after transfection, cells were treated with compounds for overnight in the medium with final concentration of FBS 1.3% and DMSO 0.1%. After overnight (16 to 20 hours) incubation, media were removed and cells were lysed with 50 μL Glo Lysis Buffer (Promega) for 10-15 minutes followed by 10 minute incubation with 50 μL Dual Glo reagent (Promega) at room temperature. Firefly luciferase luminescence was measured using a BMG Pherastar plate reader. To each well, 50 μL Stop and Glo reagent was added and incubated for 10 minutes at room temperature. Renilla luminescence was measured using a BMG Pherastar plate reader. To calculate the effect of compounds on RORγt activity, firefly values were normalized against values of DMSO only and values of reference compound at saturating concentration, then further normalized against Renilla signals. IC50s were generated by plotting final Renilla normalized data against compound concentration and percent inhibition was calculated against DMSO control.
Cells used in this assay were transiently co-transfected with three different plasmids, one expressing the GAL4-DNA binding domain (DBD)-RORγt fusion protein under control of a CMV promoter (NH2-Gal4-DBD:RORC-COOH in pCMV-BD, Stratagene #211342), and two reporter plasmids—the firefly luciferase reporter under control of a GAL4 promoter (pFR-Luc 2×GAL4) and Renilla luciferase reporter under control of CMV promoter (pRL-CMV, Promega # E2261). The full-length coding sequence was used for human RORγt, i.e., nucleotides 142-1635 of human RORγt, transcript variant 2, NCBI Accession: NM_001001523.1 (SEQ ID NO:1). HEK293T cells were plated at 8750 cells per well in 384-well plate in medium of DMEM with 10% FBS. After 18-22 hours incubation, the transfection was carried out by using a PEI solution with 42.6 ng total DNA/well (12.5 ng pCMV-BD-ROR plus 5 ng of pFR-Luc reporter and 0.125 ng of pRL-CMV reporter plus 25 ng Carrier DNA (Clontech #630440) for each well). 4-6 hours after transfection, cells were treated with compounds for overnight in the medium with final concentration of FBS 1.3% and DMSO 0.1%. After overnight (16 to 20 hours) incubation, media were removed and cells were lysed with 20 μL Glo Lysis Buffer (Promega) for 10-15 minutes followed by 10 minute incubation with 20 μL Dual Glo reagent (Promega) at room temperature. Firefly luciferase luminescence was measured using a BMG Pherastar plate reader. To each well, 20 μL Stop and Glo reagent was added and incubated for 10 minutes at room temperature. Renilla luminescence was measured using a BMG Pherastar plate reader. To calculate the effect of compounds on RORγt activity, firefly values were normalized against values of DMSO only and values of reference compound at saturating concentration, then further normalized against Renilla signals.
Background: A reporter such as luciferase makes a cellular process visible.

Like-named read-outs stand apart in the source and are kept apart here. Marks after values point to notes of the source that are not given here.

Chain of full-length human RORγt (P51449 other isoform, or with tags, fused parts or gaps): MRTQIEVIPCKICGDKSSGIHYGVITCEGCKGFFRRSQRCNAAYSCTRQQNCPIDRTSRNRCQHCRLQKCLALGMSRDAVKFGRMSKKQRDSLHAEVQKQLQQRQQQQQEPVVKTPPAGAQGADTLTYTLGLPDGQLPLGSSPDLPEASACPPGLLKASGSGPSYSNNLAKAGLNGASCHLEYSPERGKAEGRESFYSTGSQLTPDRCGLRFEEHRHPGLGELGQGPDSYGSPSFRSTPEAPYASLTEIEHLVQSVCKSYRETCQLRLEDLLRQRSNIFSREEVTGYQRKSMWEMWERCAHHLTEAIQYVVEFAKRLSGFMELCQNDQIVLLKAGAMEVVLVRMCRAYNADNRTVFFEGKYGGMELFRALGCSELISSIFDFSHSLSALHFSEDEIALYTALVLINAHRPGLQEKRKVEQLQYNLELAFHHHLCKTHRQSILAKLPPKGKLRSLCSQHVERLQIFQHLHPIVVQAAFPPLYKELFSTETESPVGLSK
Chain of human RORγt ligand binding domain (RORγt LBD) (P51449 other isoform, or with tags, fused parts or gaps): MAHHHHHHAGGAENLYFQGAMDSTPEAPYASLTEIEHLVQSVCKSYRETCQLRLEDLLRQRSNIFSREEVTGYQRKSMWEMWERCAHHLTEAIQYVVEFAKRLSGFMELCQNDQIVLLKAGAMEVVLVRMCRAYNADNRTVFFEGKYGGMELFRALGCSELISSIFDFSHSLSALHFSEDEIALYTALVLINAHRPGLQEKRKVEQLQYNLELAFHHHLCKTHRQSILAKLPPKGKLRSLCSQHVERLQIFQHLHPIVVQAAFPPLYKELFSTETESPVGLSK

The Kd is the equilibrium constant for the complex coming apart. In general, inhibition refers to the relative decrease from the control value, in per cent. Usually IC50 stands for the midpoint of a concentration-inhibition curve. As for `C[C@H]1CCCN1C(=O)c1nc(C(=O)N2CC3(COC3)C2)sc1-c1cnc(NC(C)(C)C)cc1C(F)(F)F` [Example 368, [5-[6-(tert-Butylamino)-4-(trifluoromethyl)-3-pyridyl]-2-(6-oxa-2-azaspiro[3.3]heptane-2-carbonyl)thiazol-4-yl]-[(2S)-2-methylpyrrolidin-1-yl]methanone], the Kd in assay [1] amounted to 1.7 nM. In addition, at full-length human RORγt (at 3 μM compound concentration), the inhibition at 3 µM is 110%. Moreover, the IC50 at full-length human RORγt came to 7.5 nM.
For the compound `C[C@H]1CCCN1C(=O)c1nc(C(=O)NCC(C)(C)O)sc1-c1cnc(NC(C)(C)C)cc1C(F)F` [Example 265, 5-[6-(tert-Butylamino)-4-(difluoromethyl)-3-pyridyl]-N-(2-hydroxy-2-methyl-propyl)-4-[(2S)-2-methylpyrrolidine-1-carbonyl]thiazole-2-carboxamide], the Kd in assay [1] is 6.4 nM. The inhibition at 3 µM on full-length human RORγt (at 3 μM compound concentration) was 98%. Also, the IC50 on full-length human RORγt is 75 nM.
With `C[C@H]1CCCN1C(=O)c1nc(C(=O)NCC(C)(O)C(F)(F)F)sc1-c1cnc(NC(C)(C)C)cc1C(F)(F)F` (single isomer, unassigned) [Example 359, 5-(6-(tert-Butylamino)-4-(trifluoromethyl)pyridin-3-yl)-4-((S)-2-methylpyrrolidine-1-carbonyl)-N—((R*)-3,3,3-trifluoro-2-hydroxy-2-methylpropyl)thiazole-2-carboxamide], in assay [1], the Kd is 1.1 nM. In addition, the “RORγt (FL) Reporter Assay B or C, % inhibition” value on full-length human RORγt (at 3 μM compound concentration) was 125* %. In addition, the IC50 at full-length human RORγt amounted to 7.6 nM.
With `CC[C@@H](Nc1cc(C(F)F)c(-c2sc(C(=O)N[C@@H](C)C(C)(C)O)nc2C(=O)N2CCC[C@@H]2C)cn1)C(F)(F)F` [Example 230], in assay [1], the Kd came to 2.4 nM. Moreover, at full-length human RORγt (Conditions B or C), the “RORγt (FL) Reporter Assay B or C, % inhibition (value marked *)” value (“RORγt … % inhibition (value marked *)” below) was 99* % and the IC50 is 15 nM.
Consider `C[C@H]1CCCN1C(=O)c1nc(C(=O)NCC2(O)CCC2)sc1-c1cnc(NC(C)(C)C)cc1C(F)F` [Example 133, (S)-5-(6-(tert-Butylamino)-4-(difluoromethyl)pyridin-3-yl)-N-((1-hydroxycyclobutyl)methyl)-4-(2-methylpyrrolidine-1-carbonyl)thiazole-2-carboxamide], for which the Kd in assay [1] amounted to 4.5 nM. For the same compound, at full-length human RORγt (Conditions B or C), the “RORγt … % inhibition (value marked *)” value is listed as 105* % and the IC50 is 28 nM.
As to `CC[C@H](Nc1cc(C(F)F)c(-c2sc(C(=O)NCC(C)(C)O)nc2C(=O)N2CCC[C@@H]2C)cn1)C(F)(F)F` [Example 92, 5-(4-(Difluoromethyl)-6-(((S)-1,1,1-trifluorobutan-2-yl)amino)pyridin-3-yl)-N-(2-hydroxy-2-methylpropyl)-4-((S)-2-methylpyrrolidine-1-carbonyl)thiazole-2-carboxamide], the “RORγt … % inhibition (value marked *)” value on full-length human RORγt (Conditions B or C) is on record as 106* %.
Take `C[C@H]1CCCN1C(=O)c1nc(C(=O)NCC(C)(C)O)sc1-c1cnc(NC2CCCCC2)c(C#N)c1` [Example 281, 5-[5-Cyano-6-(cyclohexylamino)-3-pyridyl]-N-(2-hydroxy-2-methyl-propyl)-4-[(2S)-2-methylpyrrolidine-1-carbonyl]thiazole-2-carboxamide]: the inhibition at 3 µM at full-length human RORγt (at 3 μM compound concentration) is 98%. The IC50 at full-length human RORγt came out at 830 nM.
With `C[C@H](Nc1cc(C(F)F)c(-c2sc(C(=O)NCC(C)(C)O)nc2C(=O)N2CCC[C@@H]2C)cn1)C(F)(F)F` [Example 145, 5-(4-(Difluoromethyl)-6-(((S)-1,1,1-trifluoropropan-2-yl)amino)pyridin-3-yl)-N-(2-hydroxy-2-methylpropyl)-4-((S)-2-methylpyrrolidine-1-carbonyl)thiazole-2-carboxamide], the “RORγt (FL) Reporter Assay B or C, % inhibition (value marked ***)” value on full-length human RORγt (Conditions B or C, marked ***: footnote not given) is listed as 76*** %.
Take `[2H]C([2H])(NC(=O)c1nc(C(=O)N2CCC[C@@H]2C)c(-c2cnc(N[C@@H](C)C(F)(F)F)cc2C(F)F)s1)C(C)(C)O` [Example 286, 5-(4-(Difluoromethyl)-6-(((S)-1,1,1-trifluoropropan-2-yl)amino)pyridin-3-yl)-N-(2-hydroxy-2-methylpropyl-1,1-d2)-4-((S)-2-methylpyrrolidine-1-carbonyl)thiazole-2-carboxamide]: the inhibition at 3 µM at full-length human RORγt (at 3 μM compound concentration) was found to be 104%.
Same read-out and setting: next, `[2H]C([2H])(NC(=O)c1nc(C(=O)N2CCC[C@@H]2C)c(-c2cnc(N[C@@H](CC)C(F)(F)F)cc2C(F)F)s1)C(C)(C)O` [Example 266, N-(1,1-Dideuterio-2-hydroxy-2-methyl-propyl)-5-[4-(difluoromethyl)-6-[[(1S)-1-(trifluoromethyl)propyl]amino]-3-pyridyl]-4-[(2S)-2-methylpyrrolidine-1-carbonyl]thiazole-2-carboxamide]: 100%.

The record behind these values is US10975068B2, “6-aminopyridin-3-yl thiazoles as modulators of RORγT” (Janssen Pharmaceutica NV, priority 2016, dated 2021).
